By IC50 is commonly meant the midpoint of a concentration-inhibition curve. The term EC50 denotes the concentration at which the effect is half-maximal.

For assay [1], the target named is T1, IRAK4 (Homo sapiens, UniProt Q9NWZ3).
T1 sequence (Q9NWZ3 1-460): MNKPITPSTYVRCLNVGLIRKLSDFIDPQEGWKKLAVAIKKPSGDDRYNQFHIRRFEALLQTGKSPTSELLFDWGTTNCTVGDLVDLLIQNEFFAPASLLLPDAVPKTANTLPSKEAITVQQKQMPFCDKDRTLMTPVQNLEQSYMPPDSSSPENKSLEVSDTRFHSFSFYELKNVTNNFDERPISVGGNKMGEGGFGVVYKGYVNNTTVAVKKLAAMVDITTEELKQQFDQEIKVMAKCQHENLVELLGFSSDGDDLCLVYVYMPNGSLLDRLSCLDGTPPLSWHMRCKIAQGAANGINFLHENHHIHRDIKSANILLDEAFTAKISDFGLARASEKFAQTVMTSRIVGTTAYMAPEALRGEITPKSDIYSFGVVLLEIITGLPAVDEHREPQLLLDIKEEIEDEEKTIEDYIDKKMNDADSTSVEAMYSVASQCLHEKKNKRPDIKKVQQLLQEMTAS
The assay is described as follows: IRAK4 PhosphoSens Biochemical Assay (BIOCHEM). To be noted: IRAK4 1 nM; ATP and Sox conjugated peptide substrate AQT0326; pH 7.5; room temperature; 240 minutes. On the procedure:
The PhosphoSens® biochemical assay was performed as described by the vendor (AssayQuant Technologies Inc. Marlborough, MA). A 1.25× stock solution of IRAK4 (PV4002, ThermoFisher Scientific, Waltham, MA) and a 5× stock solution of ATP and Sox conjugated peptide substrate, AQT0326 (CSKS-AQT0326B, AssayQuant Technologies), were prepared in 1× kinase reaction buffer consisting of 50 mM HEPES, pH 7.5, 0.01% Brij-35, 0.5 mM EGTA, 20 mM MgCl2 and 1 mM DTT. 10 μL of the ATP and substrate solution mix, for a final concentration of 200 µM ATP and […] peptide substrate, was added to a Corning 3574 384-well, white, non-binding surface microtiter plate containing 0.5 μL of serially diluted test compounds prepared in DMSO. The reactions were started with the addition of 40 μL of the enzyme solution, for a final IRAK4 concentration of 1 nM, and monitored every 71 seconds for 240 minutes at λEX 360/λEM 485 in a BioTek Synergy H4 plate reader (Agilent Technologies, Santa Clara, CA) at room temperature. The initial linear portions of the progress curves were fit according to a linear equation to yield the slopes and converted to % inhibition based on a value of 100% activity for the no inhibitor treated control. IC50 values of each compound were obtained by fitting the % inhibition-compound concentration curves using Dotmatics software (Dotmatics, Bishops Stortford, Hertfordshire, England),

Assay [2] addresses T1, IRAK4. Put plainly: ALE THP1 HTRF (IRAK4 HTRF in THP1 cell lysate, Cisbio HTRF kit). It is filed as cell-based. Set-up: THP1 Homogeneous Time Resolved Fluorescence (ALE THP1 HTRF) Procedure; endogenous in cells; host or cells: THP1. To be noted: anti-IRAK4 d2 / anti-IRAK4 k antibodies. On the procedure:
Cell culture media was prepared in a tissue culture hood in a sterile environment by adding 10% FBS and 1% Penicillin Streptomycin to 500 mL no phenol red RPMI 1640 media. The media was filtered through a Nalgene Bottle Top Filter and stored at 4° C.
For Homogenous Time Resolved Fluorescence (HTRF) assays, a Cisbio HTRF kit was used, which included: Lysis Buffer #1 4×, Blocking Reagent #3 100×, 20× Antibody 1 (Anti-IRAK4 d2), 20× Antibody 2 (Anti-IRAK4 k), and Detection Buffer.
4× Lysis Buffer was stored at 4° C. For use as 1× Lysis buffer, the 4× solution was diluted with de-ionized water (distilled water, Gibco Cat. #15230279) and 100× Blocking Reagent in a 1:3:0.04 volume ratio.
20× Antibody Solution aliquots were stored at −80° C. and the Detection Buffer was stored at 4° C. For use as a 1× Antibody Solution, the 20× Antibody Solution aliquot was diluted with Detection Buffer in a 1:19 volume ratio.
Cells were lysed at room temperature for 45 min with shaking. A BCA protein assay was performed and normalization was conducted to the desired total protein concentration with 1× lysis buffer. Next, 1× Antibody Solutions were prepared by adding 380 μL Detection Buffer to 20 μL 20× Antibody Solution aliquots and mixing well. 1× Antibody Solutions were combined 1:1 and briefly vortexed. For control wells, 20 μL 1× anti IRAK4-k Antibody Solution was saved. The 384-well plate (ProxiPlate-384 Plus, Perkin Elmer Cat. #6008289) was loaded by adding 4 μL of the mixed Antibody Solution to empty wells using a single channel repeater. Using a multi-channel repeater, 16 μL lysate was added per well, and any bubbles that were formed were popped with 20 μL pipette tips and Kimwipe edges. In column 10, triplicates of each control were prepared. In wells A10, B10, and C10, buffer control was prepared by adding 16 μL Lysis Buffer and 4 μL Detection Buffer. In wells D10, E10, and F10, cryptate control was prepared by adding 16 μL Lysis Buffer, 2 μL Detection Buffer, and 2 μL 1× anti-IRAK4-k Antibody Solution. In wells G10, H10, and 110, a negative control was prepared by adding 16 μL Lysis Buffer and 4 μL mixed Antibody Solution. The plate was sealed with a clear seal and covered with an aluminum lid. The plate was spun down at 800 g for 5 min and incubated in the dark at room temperature overnight. The next day, the plate was spun down at 800 g for 5 min. The samples were analyzed by a plate reader (Envision, PerkinElmer) using the Desnor 384 HTRF program.
A general note: Time-resolved FRET reads energy transfer from a long-lived donor to a nearby acceptor.

Molecules are shown by their SMILES. Structures can show the parent of a compound that is named as a salt. Some results are limits rather than exact numbers.

Regarding `N#Cc1nn(C2CCC(C(=O)N3CCN(c4ccc5c(c4)C(=O)N(C4CCC(=O)NC4=O)C5)CC3)CC2)cc1NC(=O)c1cnn2ccc(N3C[C@H](N)C[C@@H](F)C3)nc12` (stereo partly drawn) [Compound P-18], the IC50 in assay [1] was below 0.5 nM. Further, in assay [2], the EC50 was above 10000 nM and the “ALE THP1 HTRF YMIN” value is 69%.

`N[C@@H]1C[C@@H](F)CN(c2ccn3ncc(C(=O)Nc4cn([C@H]5CC[C@H](C(=O)NC6CCN(c7ccc8c(c7)C(=O)N(C7CCC(=O)NC7=O)C8=O)CC6)CC5)nc4C(F)F)c3n2)C1` (stereo partly drawn) [Compound P-19]: the half-inhibitory concentration (IC50) in assay [1] is below 0.5 nM. In assay [2], the EC50 was determined as 7 nM and the “ALE THP1 HTRF YMIN” value is given as 14%.

`N[C@@H]1C[C@@H](F)CN(c2ccn3ncc(C(=O)Nc4cn([C@H]5CC[C@H](C(=O)NC6CCN(c7ccc8c(c7)C(=O)N(C7CCC(=O)NC7=O)C8=O)CC6)CC5)nc4C(F)(F)F)c3n2)C1` (stereo partly drawn) [Compound P-20]: the half-inhibitory concentration (IC50) in assay [1] is below 0.5 nM. For the same compound, in assay [2], the concentration for a half-maximal effect (EC50) worked out at 11 nM and the “ALE THP1 HTRF YMIN” value came to 22%.

In the case of `N[C@@H]1C[C@@H](F)CN(c2ccn3ncc(C(=O)Nc4cn([C@H]5CC[C@H](C(=O)N6CCN(c7ccc8c(c7)C(=O)N(C7CCC(=O)NC7=O)C8)CC6)CC5)nc4C(F)F)c3n2)C1` (stereo partly drawn) [Compound P-21], in assay [1], the IC50 is below 0.5 nM. In assay [2], the EC50 came to 5 nM and the “ALE THP1 HTRF YMIN” value is on record as 18%.

In the case of `N[C@@H]1C[C@@H](F)CN(c2ccn3ncc(C(=O)Nc4cn([C@H]5CC[C@H](C(=O)N6CCN(c7ccc8c(c7)C(=O)N(C7CCC(=O)NC7=O)C8)CC6)CC5)nc4C(F)(F)F)c3n2)C1` (stereo partly drawn) [Compound P-22], the IC50 in assay [1] was below 0.5 nM. Moreover, in assay [2], the half-maximal effective concentration (EC50) turned out to be 3 nM and the “ALE THP1 HTRF YMIN” value is recorded as 27%.

With `N#Cc1nn([C@H]2CC[C@H](C(=O)NC3CCN(c4ccc5c(c4)C(=O)N(C4CCC(=O)NC4=O)C5=O)CC3)CC2)cc1NC(=O)c1cnn2ccc(N3C[C@H](N)C[C@@H](F)C3)nc12` (stereo partly drawn) [Compound P-23], the half-maximal inhibitory concentration (IC50) in assay [1] was below 0.5 nM. For the same compound, in assay [2], a half-maximal effect (EC50) was put at 8 nM and the “ALE THP1 HTRF YMIN” value came to 20%.

Turning to `N[C@@H]1C[C@@H](F)CN(c2ccn3ncc(C(=O)Nc4cn([C@H]5CC[C@H](C(=O)NC6CCN(c7ccc8c(c7)CN(C7CCC(=O)NC7=O)C8=O)CC6)CC5)nc4C(F)F)c3n2)C1` (stereo partly drawn) [Compound P-24], the 50% inhibitory concentration (IC50) in assay [1] was below 0.5 nM. Moreover, in assay [2], the concentration giving a half-maximal response (EC50) is 4 nM and the “ALE THP1 HTRF YMIN” value is recorded as 11%.

As to `N[C@@H]1C[C@@H](F)CN(c2ccn3ncc(C(=O)Nc4cn([C@H]5CC[C@H](C(=O)NC6CCN(c7ccc8c(c7)C(=O)N(C7CCC(=O)NC7=O)C8)CC6)CC5)nc4C(F)F)c3n2)C1` (stereo partly drawn) [Compound P-25], the IC50 in assay [1] was below 0.5 nM. Also, in assay [2], the EC50 came to 7 nM and the “ALE THP1 HTRF YMIN” value was 11%.

As to `N[C@@H]1C[C@@H](F)CN(c2ccn3ncc(C(=O)Nc4cn([C@H]5CC[C@H](CN6CCN(c7ccc8c(c7)C(=O)N(C7CCC(=O)NC7=O)C8=O)CC6)CC5)nc4C(F)F)c3n2)C1` (stereo partly drawn) [Compound P-26], in assay [1], the IC50 was below 0.5 nM. For the same compound, in assay [2], the EC50 came to 6 nM and the “ALE THP1 HTRF YMIN” value is 29%.

`Cc1nn([C@H]2CC[C@H](C(=O)NC3CCN(c4ccc5c(c4)C(=O)N(C4CCC(=O)NC4=O)C5=O)CC3)CC2)cc1NC(=O)c1cnn2ccc(N3C[C@H](N)C[C@@H](F)C3)nc12` (stereo partly drawn) [Compound P-27, N-[1-[4-[[1-[2-(2,6-dioxo-3-piperidyl)-1,3-dioxo-isoindolin-5-yl]-4-piperidyl]carbamoyl]cyclohexyl]-3-methyl-pyrazol-4-yl]-5-[(3R,5R)-3-amino-5-fluoro-1-piperidyl]pyrazolo[1,5-a]pyrimidine-3-carboxamide hydroxhloride]: the half-maximal inhibitory concentration (IC50) in assay [1] is below 0.5 nM. In addition, in assay [2], the EC50 stood at 26 nM and the “ALE THP1 HTRF YMIN” value turned out to be 24%.

Regarding `Cc1c(NC(=O)c2cnn3ccc(N4C[C@H](N)C[C@@H](F)C4)nc23)cnn1[C@H]1CC[C@H](C(=O)NC2CCN(c3ccc4c(c3)C(=O)N(C3CCC(=O)NC3=O)C4=O)CC2)CC1` (stereo partly drawn) [Compound P-28], the half-inhibitory concentration (IC50) in assay [1] was above 1 nM. Besides, in assay [2], the EC50 was above 10000 nM and the “ALE THP1 HTRF YMIN” value was above 95%.

Take `N[C@@H]1C[C@@H](F)CN(c2ccn3ncc(C(=O)Nc4cn([C@H]5CC[C@H](NC(=O)C6CCN(c7ccc8c(c7)C(=O)N(C7CCC(=O)NC7=O)C8=O)CC6)CC5)nc4C(F)F)c3n2)C1` (stereo partly drawn) [Compound P-29, 5-[(3R,5R)-3-Amino-5-fluoro-1-piperidyl]-N-[3-(difluoromethyl)-1-[4-[[1-[2-(2,6-dioxo-3-piperidyl)-1,3-dioxo-isoindolin-5-yl]piperidine-4-carbonyl]amino]cyclohexyl]pyrazol-4-yl]pyrazolo[1,5-a]pyrimidine-3-carboxamide hydrochloride]: the IC50 in assay [1] was below 0.5 nM. Moreover, in assay [2], a half-maximal response (EC50) required 4 nM and the “ALE THP1 HTRF YMIN” value is 10%.

For `N[C@@H]1C[C@@H](F)CN(c2ccn3ncc(C(=O)Nc4cn([C@H]5CC[C@H](CCN6CCN(c7ccc8c(c7)CN(C7CCC(=O)NC7=O)C8=O)CC6)CC5)nc4C(F)F)c3n2)C1` (stereo partly drawn) [Compound P-30, N-[3-(Difluoromethyl)-1-[4-[2-[4-[2-(2,6-dioxo-3-piperidyl)-1-oxo-isoindolin-5-yl]piperazin-1-yl]ethyl]cyclohexyl]pyrazol-4-yl]-5-[(3R,5R)-3-amino-5-fluoro-1-piperidyl]pyrazolo[1,5-a]pyrimidine-3-carboxamide dihydrochloride], the 50% inhibitory concentration (IC50) in assay [1] is below 0.5 nM. Moreover, in assay [2], the EC50 was 8 nM and the “ALE THP1 HTRF YMIN” value was 10%.

Consider `O=C1CCC(N2Cc3cc(N4CCC(NC(=O)[C@H]5CC[C@H](n6cc(NC(=O)c7cnn8ccc(N9CCOCC9)nc78)c(C(F)F)n6)CC5)CC4)ccc3C2=O)C(=O)N1` (stereo partly drawn) [Compound P-31, N-[3-(difluoromethyl)-1-[4-[[1-[2-(2,6-dioxo-3-piperidyl)-1-oxo-isoindolin-5-yl]-4-piperidyl]carbamoyl]cyclohexyl]pyrazol-4-yl]-5-morpholino-pyrazolo[1,5-a]pyrimidine-3-carboxamide], for which the IC50 in assay [1] is below 0.5 nM. For the same compound, in assay [2], the EC50 was 7 nM and the “ALE THP1 HTRF YMIN” value was found to be 27%.

Values taken from US20260327233A1, “Heteroaryl Compounds as Ligand Directed Degraders of IRAK4” (Celgene Corporation, priority 2023, published 2026).
